Reference: patent US20230212222A1 (ANYGEN CO., LTD., priority 2020, published 2023)
Square brackets hold non-standard residues; d marks the D form. Peptide text beside a SMILES is read from it. * marks the point of attachment. His(Trt) = N[C@@H](Cc1cn(C(c2ccccc2)(c2ccccc2)c2ccccc2)cn1)C(=O)O; His(τ-CHPh2) = N[C@@H](Cc1cn(C(c2ccccc2)c2ccccc2)cn1)C(=O)O; Biotin = O=C1N[C@H]2[C@H](CS[C@H]2CCCCC(=O)*)N1; dPhe(4-CF3) = N[C@H](Cc1ccc(C(F)(F)F)cc1)C(=O)O; Tyr(3-NH2) = Nc1cc(C[C@H](N)C(=O)O)ccc1O; dPhe(4-Me) = Cc1ccc(C[C@@H](N)C(=O)O)cc1; Phe(4-Me) = Cc1ccc(C[C@H](N)C(=O)O)cc1; d2Nal = N[C@H](Cc1ccc2ccccc2c1)C(=O)O; d3Pal = N[C@H](Cc1cccnc1)C(=O)O; Octanoyl = CCCCCCCC(=O)*; Orn = NCCC[C@H](N)C(=O)O; Boc = CC(C)(C)OC(=O)*

Tests used:
GPR39 [1] = target: T1, GPR39 (Homo sapiens, UniProt O43194); assay: luciferase assay system (SRE luciferase reporter gene) for GPR39 in CV-1 cells; conditions: for EC50: EC50, CV-1 cells, GPR39 and SRE luciferase adenovirus, treated 6 hours, luminometer
T1 sequence (O43194 1-453): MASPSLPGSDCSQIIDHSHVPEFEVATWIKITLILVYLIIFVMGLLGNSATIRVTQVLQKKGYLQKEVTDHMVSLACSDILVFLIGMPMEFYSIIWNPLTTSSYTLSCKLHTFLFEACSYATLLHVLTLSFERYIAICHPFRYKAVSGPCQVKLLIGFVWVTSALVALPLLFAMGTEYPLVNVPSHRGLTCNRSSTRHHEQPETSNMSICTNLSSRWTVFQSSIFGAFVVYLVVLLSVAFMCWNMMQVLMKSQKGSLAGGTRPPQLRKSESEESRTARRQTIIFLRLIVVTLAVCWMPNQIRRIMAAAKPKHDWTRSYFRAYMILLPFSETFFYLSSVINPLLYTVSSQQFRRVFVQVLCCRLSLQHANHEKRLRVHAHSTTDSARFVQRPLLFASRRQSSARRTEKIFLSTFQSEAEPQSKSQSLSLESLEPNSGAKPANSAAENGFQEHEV
Experimental: (§1) Specifically, the fibroblast cell line CV-1 (1×10^5 cells/ml, Korea Cell Line Bank) was cultured in a 96 well cell culture plate for 24 hours, and then treated with GPR39 inserted into adenovirus and SRE (serum response element) luciferase at 50 MOI (multiplicity of infection) and 25 MOI virus for 3 hours, respectively, and then cultured for 24 hours.

GPR39 [2] = target: T1, GPR39
Experimental: as §1

Row | SMILES | ECmax (-fold induction over basal) (GPR39 [2]) | EC50 (GPR39 [1]) [nM] | activity level for GPR39 (in words) (GPR39 [1]; comment on Table 3)
1 | CCCCCCCC(=O)NCCCC[C@H](NC(=O)[C@H](Cc1cn(C(c2ccccc2)c2ccccc2)cn1)NC(=O)CCCC[C@@H]1SC[C@@H]2NC(=O)N[C@@H]21)C(=O)N[C@@H](Cc1ccc(C)cc1)C(=O)N[C@@H](Cc1ccc(O)cc1)C(=O)O [HKFY-72, ((S)-2-((S)-2-((S)-3-(1-benzhydryl-1H-imidazol-4-yl)-2-(5-((3aS,4S,6aR)-2-oxohexahydro-1H-thieno[3,4-d]imidazol-4-yl)pentanamido)propanamido)-6-octanamidohexanamido)-3-(p-tolyl)propanoyl)-L-tyrosine] (Biotin-[His(τ-CHPh2)]K(Octanoyl)[Phe(4-Me)]Y-OH) | 10.4 ± 1.12 -fold induction over basal | 11 ± 2 | 
2 | CCCCCCCC(=O)NCCCC[C@H](NC(=O)[C@@H](N)Cc1cn(C(c2ccccc2)(c2ccccc2)c2ccccc2)cn1)C(=O)N[C@H](Cc1cccnc1)C(=O)N[C@@H](Cc1ccc(O)cc1)C(=O)O [HKFY-73, ((R)-2-((S)-2-((S)-2-amino-3-(1-trityl-1H-imidazol-4-yl)propanamido)-6-octanamidohexanamido)-3-(pyridin-3-yl)propanoyl)-L-tyrosine] (H-[His(Trt)]K(Octanoyl)[d3Pal]Y-OH) | 11.6 ± 2.3 -fold induction over basal | 23 ± 1 | 
3 | CCCCCCCC(=O)NCCCC[C@H](NC(=O)[C@@H](N)Cc1cn(C(c2ccccc2)(c2ccccc2)c2ccccc2)cn1)C(=O)N[C@H](Cc1ccc2ccccc2c1)C(=O)N[C@@H](Cc1ccc(O)cc1)C(=O)O [HKFY-74, ((R)-2-((S)-2-((S)-2-amino-3-(1-trityl-1H-imidazol-4-yl)propanamido)-6-octanamidohexanamido)-3-(naphthalen-2-yl)propanoyl)-L-tyrosine] (H-[His(Trt)]K(Octanoyl)[d2Nal]Y-OH) | 18.8 ± 3.2 -fold induction over basal | 8 ± 1 | 
4 | CCCCCCCC(=O)NCCCC[C@H](NC(=O)[C@@H](N)Cc1cn(C(c2ccccc2)(c2ccccc2)c2ccccc2)cn1)C(=O)N[C@H](Cc1ccc(C(F)(F)F)cc1)C(=O)N[C@@H](Cc1ccc(O)cc1)C(=O)O [HKFY-76, ((R)-2-((S)-2-((S)-2-amino-3-(1-trityl-1H-imidazol-4-yl)propanamido)-6-octanamidohexanamido)-3-(4-(trifluoromethyl)phenyl)propanoyl)-L-tyrosine] (H-[His(Trt)]K(Octanoyl)[dPhe(4-CF3)]Y-OH) | 14.2 ± 3.75 -fold induction over basal | 7 ± 1 | 
5 | CCCCCCCC(=O)NCCCC[C@H](NC(=O)[C@H](Cc1c[nH]c2ccccc12)NC(=O)OC(C)(C)C)C(=O)N[C@H](Cc1ccc(C)cc1)C(=O)N[C@@H](Cc1ccc(O)cc1)C(=O)O [HKFY-78, ((R)-2-((S)-2-((S)-2-((tert-butoxycarbonyl)amino)-3-(1H-indol-3-yl)propanamido)-6-octanamidohexanamido)-3-(p-tolyl)propanoyl)-L-tyrosine] (Boc-WK(Octanoyl)[dPhe(4-Me)]Y-OH) | 11.4 ± 1.54 -fold induction over basal | 9 ± 1 | 

Further lines, with some results ahead:

Row | ECmax (-fold induction over basal) (GPR39 [2]) | EC50 (GPR39 [1]) [nM] | SMILES | activity level for GPR39 (in words) (GPR39 [1]; comment on Table 3)
6 | 18.3 ± 2.2 -fold induction over basal |  | CCCCCCCC(=O)NCCCC[C@H](NC(=O)[C@@H](N)Cc1cn(C(c2ccccc2)c2ccc(O)cc2)cn1)C(=O)N[C@H](Cc1ccc(C)cc1)C(=O)N[C@@H](Cc1ccc(O)cc1)C(=O)O (stereo partly drawn) [HKFY-65, ((2R)-2-((2S)-2-((2S)-2-amino-3-(1-((4-hydroxyphenyl)(phenyl)methyl)-1H-imidazol-4-yl)propanamido)-6-octanamidohexanamido)-3-(p-tolyl)propanoyl)-L-tyrosine] | higher activity level than other HJKFY derivatives
7 | 20.2 ± 3.5 -fold induction over basal | 11 ± 1 | CCCCCCCC(=O)NCCCC[C@H](NC(=O)[C@@H](N)Cc1cn(C(c2ccccc2)c2ccccc2)cn1)C(=O)N[C@H](Cc1ccc(C)cc1)C(=O)N[C@@H](Cc1ccc(O)cc1)C(N)=O [HKFY-66, N-((S)-5-((S)-2-amino-3-(1-benzhydryl-1H-imidazol-4-yl)propanamido)-6-(((R)-1-(((S)-1-amino-3-(4-hydroxyphenyl)-1-oxopropan-2-yl)amino)-1-oxo-3-(p-tolyl)propan-2-yl)amino)-6-oxohexyl)octanamide] (H-[His(τ-CHPh2)]K(Octanoyl)[dPhe(4-Me)]Y-NH2) | 
8 | 10.1 ± 1.6 -fold induction over basal | 20 ± 1 | CCCCCCCC(=O)NCCCC[C@H](NC(=O)[C@@H](N)Cc1cn(C(c2ccccc2)c2ccccc2)cn1)C(=O)N[C@H](Cc1ccc(C)cc1)C(=O)N[C@@H](Cc1ccc(O)c(N)c1)C(=O)O [HKFY-70, (S)-2-((R)-2-((S)-2-((S)-2-amino-3-(1-benzhydryl-1H-imidazol-4-yl)propanamido)-6-octanamidohexanamido)-3-(p-tolyl)propanamido)-3-(3-amino-4-hydroxyphenyl)propanoic acid] (H-[His(τ-CHPh2)]K(Octanoyl)[dPhe(4-Me)][Tyr(3-NH2)]-OH) | 
9 | 16.4 ± 2.51 -fold induction over basal | 12 ± 3 | CCCCCCCC(=O)NCCC[C@H](NC(=O)[C@@H](N)Cc1cn(C(c2ccccc2)c2ccccc2)cn1)C(=O)N[C@H](Cc1ccc(C)cc1)C(=O)N[C@@H](Cc1ccc(O)cc1)C(=O)O [HKFY-71, ((R)-2-((S)-2-((S)-2-amino-3-(1-benzhydryl-1H-imidazol-4-yl)propanamido)-5-octanamidopentanamido)-3-(p-tolyl)propanoyl)-L-tyrosine] (H-[His(τ-CHPh2)][Orn](Octanoyl)[dPhe(4-Me)]Y-OH) | 
10 | 11.6 ± 2.14 -fold induction over basal | 7 ± 2 | CCCCCCCC(=O)NCCCC[C@H](NC(=O)[C@@H](N)Cc1cn(Cc2ccc(-c3ccccc3-c3nnn[nH]3)cc2)cn1)C(=O)N[C@H](Cc1ccc(C)cc1)C(=O)N[C@@H](Cc1ccc(O)cc1)C(=O)O [HKFY-77, ((R)-2-((S)-2-((S)-3-(1-((2′-(1H-tetrazol-5-yl)-[1,1′-biphenyl]-4-yl)methyl)-1H-imidazol-4-yl)-2-aminopropanamido)-6-octanamidohexanamido)-3-(p-tolyl)propanoyl)-L-tyrosine] | 
